Measurements as given in the supplement of paper PMC10307832.

Tests used:
Assay in all cases: relative viability (nuclei count vs DMSO), 5 days (fraction); higher = more cells survive
HCC-15 = test system: HCC-15
In short: (§1)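 After 5 days of treatment, lung cancer cells in 1536-well plates were fixed and stained in a single step (final 0.05% Triton X-100, 1% formaldehyde, 1 ug/ml Hoechst) and their nuclei counted on 4× images. Treatment had been applied by pin tool the day after seeding as one drug alone or as a fixed anchor-drug dose with five library-drug doses (not always all listed) in √10 steps. Relative viability is the nuclei count of treated wells divided by that of vehicle wells, and values are medians of duplicate plates.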

COR-L 105 = test system: COR-L 105
In short: as §1

HCC-78 = test system: HCC-78
In short: as §1

NCI-H1755 = test system: NCI-H1755
In short: as §1

ABC-1 = test system: ABC-1
In short: as §1

NCI-H1993 = test system: NCI-H1993
In short: as §1

UMC-11 = test system: UMC-11
In short: as §1

NCI-H1975 = test system: NCI-H1975
In short: as §1

NCI-H322M = test system: NCI-H322M
In short: as §1

NCI-H441 = test system: NCI-H441
In short: as §1

EMC-BAC-2 = test system: EMC-BAC-2
In short: as §1

NCI-H358 = test system: NCI-H358
In short: as §1

EPLC-272H = test system: EPLC-272H
In short: as §1

NCI-H2085 = test system: NCI-H2085
In short: as §1

HOP-62 = test system: HOP-62
In short: as §1

NCI-H3122 = test system: NCI-H3122
In short: as §1

NCI-H2023 = test system: NCI-H2023
In short: as §1

NCI-H2126 = test system: NCI-H2126
In short: as §1

CAL-12T = test system: CAL-12T
In short: as §1

LXF-289 = test system: LXF-289
In short: as §1

NCI-H1666 = test system: NCI-H1666
In short: as §1

NCI-H1915 = test system: NCI-H1915
In short: as §1

Compound: NC(=O)Nc1cc(-c2cccc(F)c2)sc1C(=O)N[C@H]1CCCNC1 [AZD7762] + Cc1nc(NC(=O)N2CCC[C@H]2C(N)=O)sc1-c1ccnc(C(C)(C)C(F)(F)F)c1 [Alpelisib] (partner 2 µM)
- relative viability (HCC-15; first compound 0.01 µM): 0.995
- relative viability (HCC-15; first compound 0.03162 µM): 0.945
- relative viability (HCC-15; first compound 0.1 µM): 0.983
- relative viability (HCC-15; first compound 0.3162 µM): 0.93
- relative viability (HCC-15; first compound 1 µM): 1.12
- relative viability (COR-L 105; first compound 0.01 µM): 1.2
- relative viability (COR-L 105; first compound 0.03162 µM): 1.03
- relative viability (COR-L 105; first compound 0.1 µM): 0.92
- relative viability (COR-L 105; first compound 0.3162 µM): 0.847
- relative viability (COR-L 105; first compound 1 µM): 0.461
- relative viability (HCC-78; first compound 0.01 µM): 0.371
- relative viability (HCC-78; first compound 0.03162 µM): 0.419
- relative viability (HCC-78; first compound 0.1 µM): 0.361
- relative viability (HCC-78; first compound 0.3162 µM): 0.394
- relative viability (HCC-78; first compound 1 µM): 0.287
- relative viability (NCI-H1755; first compound 0.01 µM): 0.957
- relative viability (NCI-H1755; first compound 0.03162 µM): 0.924
- relative viability (NCI-H1755; first compound 0.1 µM): 0.999
- relative viability (NCI-H1755; first compound 0.3162 µM): 0.907
- relative viability (NCI-H1755; first compound 1 µM): 0.547
- relative viability (ABC-1; first compound 0.01 µM): 1.03
- relative viability (ABC-1; first compound 0.03162 µM): 0.831
- relative viability (ABC-1; first compound 0.1 µM): 0.942
- relative viability (ABC-1; first compound 0.3162 µM): 0.557
- relative viability (ABC-1; first compound 1 µM): 0.311
- relative viability (NCI-H1993; first compound 0.01 µM): 0.671
- relative viability (NCI-H1993; first compound 0.03162 µM): 0.708
- relative viability (NCI-H1993; first compound 0.1 µM): 0.651
- relative viability (NCI-H1993; first compound 0.3162 µM): 0.673
- relative viability (NCI-H1993; first compound 1 µM): 0.753
- relative viability (UMC-11; first compound 0.01 µM): 1.03
- relative viability (UMC-11; first compound 0.03162 µM): 0.962
- relative viability (UMC-11; first compound 0.1 µM): 1.06
- relative viability (UMC-11; first compound 0.3162 µM): 1.03
- relative viability (UMC-11; first compound 1 µM): 0.653
- relative viability (NCI-H1975; first compound 0.01 µM): 0.678
- relative viability (NCI-H1975; first compound 0.03162 µM): 0.585
- relative viability (NCI-H1975; first compound 0.1 µM): 0.579
- relative viability (NCI-H1975; first compound 0.3162 µM): 0.436
- relative viability (NCI-H1975; first compound 1 µM): 0.322
- relative viability (NCI-H322M; first compound 0.01 µM): 0.776
- relative viability (NCI-H322M; first compound 0.03162 µM): 0.906
- relative viability (NCI-H322M; first compound 0.1 µM): 0.819
- relative viability (NCI-H322M; first compound 0.3162 µM): 0.94
- relative viability (NCI-H322M; first compound 1 µM): 0.906
- relative viability (NCI-H441; first compound 0.01 µM): 1.17
- relative viability (NCI-H441; first compound 0.03162 µM): 0.831
- relative viability (NCI-H441; first compound 0.1 µM): 1.2
- relative viability (NCI-H441; first compound 0.3162 µM): 1.01
- relative viability (NCI-H441; first compound 1 µM): 1.09
- relative viability (EMC-BAC-2; first compound 0.01 µM): 0.82
- relative viability (EMC-BAC-2; first compound 0.03162 µM): 0.72
- relative viability (EMC-BAC-2; first compound 0.1 µM): 0.79
- relative viability (EMC-BAC-2; first compound 0.3162 µM): 0.762
- relative viability (EMC-BAC-2; first compound 1 µM): 0.797
- relative viability (NCI-H358; first compound 0.01 µM): 0.819
- relative viability (NCI-H358; first compound 0.03162 µM): 0.964
- relative viability (NCI-H358; first compound 0.1 µM): 0.837
- relative viability (NCI-H358; first compound 0.3162 µM): 0.629
- relative viability (NCI-H358; first compound 1 µM): 0.33
- relative viability (EPLC-272H; first compound 0.01 µM): 1.07
- relative viability (EPLC-272H; first compound 0.03162 µM): 1.1
- relative viability (EPLC-272H; first compound 0.1 µM): 1.13
- relative viability (EPLC-272H; first compound 0.3162 µM): 0.992
- relative viability (EPLC-272H; first compound 1 µM): 0.674
- relative viability (NCI-H2085; first compound 0.01 µM): 1.06
- relative viability (NCI-H2085; first compound 0.03162 µM): 0.928
- relative viability (NCI-H2085; first compound 0.1 µM): 1.1
- relative viability (NCI-H2085; first compound 0.3162 µM): 1.06
- relative viability (NCI-H2085; first compound 1 µM): 0.782
- relative viability (HOP-62; first compound 0.01 µM): 0.918
- relative viability (HOP-62; first compound 0.03162 µM): 1.22
- relative viability (HOP-62; first compound 0.1 µM): 0.836
- relative viability (HOP-62; first compound 0.3162 µM): 1.04
- relative viability (HOP-62; first compound 1 µM): 1.36
- relative viability (NCI-H3122; first compound 0.01 µM): 0.768
- relative viability (NCI-H3122; first compound 0.03162 µM): 0.866
- relative viability (NCI-H3122; first compound 0.1 µM): 0.737
- relative viability (NCI-H3122; first compound 0.3162 µM): 0.748
- relative viability (NCI-H3122; first compound 1 µM): 0.758
- relative viability (NCI-H2023; first compound 0.01 µM): 0.651
- relative viability (NCI-H2023; first compound 0.03162 µM): 0.608
- relative viability (NCI-H2023; first compound 0.1 µM): 0.436
- relative viability (NCI-H2023; first compound 0.3162 µM): 0.328
- relative viability (NCI-H2023; first compound 1 µM): 0.108
- relative viability (NCI-H2126; first compound 0.01 µM): 0.794
- relative viability (NCI-H2126; first compound 0.03162 µM): 0.775
- relative viability (NCI-H2126; first compound 0.1 µM): 0.887
- relative viability (NCI-H2126; first compound 0.3162 µM): 0.824
- relative viability (NCI-H2126; first compound 1 µM): 0.85
- relative viability (CAL-12T; first compound 0.01 µM): 1.3
- relative viability (CAL-12T; first compound 0.03162 µM): 1.18
- relative viability (CAL-12T; first compound 0.1 µM): 1.24
- relative viability (CAL-12T; first compound 0.3162 µM): 0.955
- relative viability (CAL-12T; first compound 1 µM): 0.155
- relative viability (LXF-289; first compound 0.01 µM): 1.01
- relative viability (LXF-289; first compound 0.03162 µM): 1.07
- relative viability (LXF-289; first compound 0.1 µM): 1.12
- relative viability (LXF-289; first compound 0.3162 µM): 1.04
- relative viability (LXF-289; first compound 1 µM): 1.14
- relative viability (NCI-H1666; first compound 0.01 µM): 1.12
- relative viability (NCI-H1666; first compound 0.03162 µM): 1.24
- relative viability (NCI-H1666; first compound 0.1 µM): 1.18
- relative viability (NCI-H1666; first compound 0.3162 µM): 1.02
- relative viability (NCI-H1666; first compound 1 µM): 0.75
- relative viability (NCI-H1915; first compound 0.01 µM): 1.06
- relative viability (NCI-H1915; first compound 0.03162 µM): 1.12
- relative viability (NCI-H1915; first compound 0.1 µM): 1.09
- relative viability (NCI-H1915; first compound 0.3162 µM): 1.09
- relative viability (NCI-H1915; first compound 1 µM): 0.997
